Results: ChEMBL document CHEMBL1145468, “Serum differentially alters the antifungal properties of echinocandin drugs” (Antimicrob Agents Chemother, 2007)
In brackets after ≈: the same amount, converted by molar mass. *1 amine or outer side, *2 acyl side, *3 side chain or, on linkers, in order; H or OH if unused. Where a SMILES comes first, the peptide text is derived from it. Bridges are numbered along the chain shown (N, C = ends). [ ]: non-standard residue; d: D form. The star is where a group is joined. hTyr(3S-OH,4S-OH,3'-OSO3H) = N[C@H](C(=O)O)[C@H](O)[C@@H](O)c1ccc(O)c(OS(=O)(=O)O)c1; pTerphenylCO(4''-OnC5H11) = CCCCCOc1ccc(-c2ccc(-c3ccc(C(=O)*)cc3)cc2)cc1; Orn(4R-OH,5R-OH) = O=C([C@H](C[C@@H](O)[C@@H](O)N[*:3])N[*:1])[*:2]; hTyr(3S-OH,4S-OH) = N[C@H](C(=O)O)[C@H](O)[C@@H](O)c1ccc(O)cc1; Pro(3S-OH,4S-Me) = C[C@H]1CN[C@H](C(=O)O)[C@H]1O; X1 = CCCCCOc1ccc(-c2cc(-c3ccc(C(=O)*)cc3)no2)cc1; Gln(3R-OH) = NC(=O)C[C@@H](O)[C@H](N)C(=O)O; Hyp = O=C(O)[C@@H]1C[C@@H](O)CN1

How the values were obtained:
Glucan synthase [1] = biological target: T1, Glucan synthase (Candida albicans, UniProt O13423); test: Inhibition of glucan synthase in Candida albicans 36082 assessed as incorporation of [3H]uridine diphosphoglucose in presence of 50% serum
[2] = Inhibition of glucan synthase in Aspergillus fumigatus MF5668
Glucan synthase [3] = biological target: T1, Glucan synthase; test: Inhibition of glucan synthase in Candida albicans ATCC 36082
Glucan synthase [4] = biological target: T1, Glucan synthase; test: Inhibition of glucan synthase in Candida albicans 36082 assessed as incorporation of [3H]uridine diphosphoglucose
[5] = Inhibition of glucan synthase in Aspergillus fumigatus R21 in presence of 10% human serum
Glucan synthase [6] = biological target: T1, Glucan synthase; test: Inhibition of glucan synthase in Candida albicans 36082 assessed as incorporation of [3H]uridine diphosphoglucose in presence of 10% serum
Glucan synthase [7] = biological target: T1, Glucan synthase; test: Inhibition of glucan synthase in Candida albicans SC5314 in presence of 10% human serum
[8] = Inhibition of glucan synthase in Aspergillus fumigatus ATCC 13073
[9] = Inhibition of glucan synthase in Aspergillus fumigatus R21 in presence of 50% human serum
Glucan synthase [10] = biological target: T1, Glucan synthase; test: Inhibition of glucan synthase in Candida albicans ATCC 90028 in presence of 10% human serum
Candida albicans [11] = test: Ratio of MIC for Candida albicans to MIC for Candida albicans in presence of 50% human serum; type: functional
[12] = Inhibition of glucan synthase in Aspergillus fumigatus ATCC 13073 in presence of 20% human serum
[13] = Inhibition of glucan synthase in Aspergillus fumigatus MF5668 in presence of 20% human serum
Glucan synthase [14] = biological target: T1, Glucan synthase; test: Inhibition of glucan synthase in Candida albicans 36082 assessed as incorporation of [3H]uridine diphosphoglucose in presence of 20% serum
Candida tropicalis = test: Ratio of MIC for Candida tropicalis to MIC for Candida tropicalis in presence of 50% human serum; type: functional
Aspergillus flavus = test: Ratio of MIC for Aspergillus flavus to MIC for Aspergillus flavus in presence of 50% human serum; type: functional
Aspergillus fumigatus = test: Ratio of MIC for Aspergillus fumigatus to MIC for Aspergillus fumigatus in presence of 50% human serum; type: functional
Glucan synthase [15] = biological target: T1, Glucan synthase; test: Inhibition of glucan synthase in Candida albicans SC5314
[16] = Inhibition of glucan synthase in Aspergillus fumigatus R21
Glucan synthase [17] = biological target: T1, Glucan synthase; test: Inhibition of glucan synthase in Candida albicans ATCC 90028 in presence of 20% human serum
Pichia kudriavzevii = test: Ratio of MIC for Candida krusei to MIC for Candida krusei in presence of 50% human serum; type: functional
[18] = Inhibition of glucan synthase in Aspergillus fumigatus ATCC 13073 in presence of 10% human serum
[19] = Inhibition of glucan synthase in Aspergillus fumigatus MF5668 in presence of 10% human serum
[20] = Inhibition of glucan synthase in Aspergillus fumigatus MF5668 in presence of 50% human serum
Aspergillus niger = test: Ratio of MIC for Aspergillus flavus to MIC for Aspergillus niger in presence of 50% human serum; type: functional
Candida albicans [21] = test: Antifungal activity against Candida albicans 36082 infected BALB/c mouse assessed as fungal kidney burden after 14 days; type: functional; conditions: 336 h
[22] = Inhibition of glucan synthase in Aspergillus fumigatus R21 in presence of 20% human serum
Glucan synthase [23] = biological target: T1, Glucan synthase; test: Inhibition of glucan synthase in Candida albicans ATCC 90028
Nakaseomyces glabratus = test: Ratio of MIC for Candida glabrata to MIC for Candida glabrata in presence of 50% mouse serum; type: functional
Candida parapsilosis = test: Ratio of MIC for Candida parapsilosis to MIC for Candida parapsilosis in presence of 50% human serum; type: functional
Glucan synthase [24] = biological target: T1, Glucan synthase; test: Inhibition of glucan synthase in Candida albicans ATCC 36082 in presence of 10% human serum
Glucan synthase [25] = biological target: T1, Glucan synthase; test: Inhibition of glucan synthase in Candida albicans SC5314 in presence of 50% human serum
Glucan synthase [26] = biological target: T1, Glucan synthase; test: Inhibition of glucan synthase in Candida albicans ATCC 90028 in presence of 50% human serum
Aspergillus terreus = test: Ratio of MIC for Aspergillus flavus to MIC for Aspergillus terreus in presence of 50% human serum; type: functional
Glucan synthase [27] = biological target: T1, Glucan synthase; test: Inhibition of glucan synthase in Candida albicans ATCC 36082 in presence of 20% human serum
Glucan synthase [28] = biological target: T1, Glucan synthase; test: Inhibition of glucan synthase in Candida albicans SC5314 in presence of 20% human serum
[29] = Inhibition of glucan synthase in Aspergillus fumigatus ATCC 13073 in presence of 50% human serum
Glucan synthase [30] = biological target: T1, Glucan synthase; test: Inhibition of glucan synthase in Candida albicans ATCC 36082 in presence of 50% human serum

T1 sequence (O13423 whole entry): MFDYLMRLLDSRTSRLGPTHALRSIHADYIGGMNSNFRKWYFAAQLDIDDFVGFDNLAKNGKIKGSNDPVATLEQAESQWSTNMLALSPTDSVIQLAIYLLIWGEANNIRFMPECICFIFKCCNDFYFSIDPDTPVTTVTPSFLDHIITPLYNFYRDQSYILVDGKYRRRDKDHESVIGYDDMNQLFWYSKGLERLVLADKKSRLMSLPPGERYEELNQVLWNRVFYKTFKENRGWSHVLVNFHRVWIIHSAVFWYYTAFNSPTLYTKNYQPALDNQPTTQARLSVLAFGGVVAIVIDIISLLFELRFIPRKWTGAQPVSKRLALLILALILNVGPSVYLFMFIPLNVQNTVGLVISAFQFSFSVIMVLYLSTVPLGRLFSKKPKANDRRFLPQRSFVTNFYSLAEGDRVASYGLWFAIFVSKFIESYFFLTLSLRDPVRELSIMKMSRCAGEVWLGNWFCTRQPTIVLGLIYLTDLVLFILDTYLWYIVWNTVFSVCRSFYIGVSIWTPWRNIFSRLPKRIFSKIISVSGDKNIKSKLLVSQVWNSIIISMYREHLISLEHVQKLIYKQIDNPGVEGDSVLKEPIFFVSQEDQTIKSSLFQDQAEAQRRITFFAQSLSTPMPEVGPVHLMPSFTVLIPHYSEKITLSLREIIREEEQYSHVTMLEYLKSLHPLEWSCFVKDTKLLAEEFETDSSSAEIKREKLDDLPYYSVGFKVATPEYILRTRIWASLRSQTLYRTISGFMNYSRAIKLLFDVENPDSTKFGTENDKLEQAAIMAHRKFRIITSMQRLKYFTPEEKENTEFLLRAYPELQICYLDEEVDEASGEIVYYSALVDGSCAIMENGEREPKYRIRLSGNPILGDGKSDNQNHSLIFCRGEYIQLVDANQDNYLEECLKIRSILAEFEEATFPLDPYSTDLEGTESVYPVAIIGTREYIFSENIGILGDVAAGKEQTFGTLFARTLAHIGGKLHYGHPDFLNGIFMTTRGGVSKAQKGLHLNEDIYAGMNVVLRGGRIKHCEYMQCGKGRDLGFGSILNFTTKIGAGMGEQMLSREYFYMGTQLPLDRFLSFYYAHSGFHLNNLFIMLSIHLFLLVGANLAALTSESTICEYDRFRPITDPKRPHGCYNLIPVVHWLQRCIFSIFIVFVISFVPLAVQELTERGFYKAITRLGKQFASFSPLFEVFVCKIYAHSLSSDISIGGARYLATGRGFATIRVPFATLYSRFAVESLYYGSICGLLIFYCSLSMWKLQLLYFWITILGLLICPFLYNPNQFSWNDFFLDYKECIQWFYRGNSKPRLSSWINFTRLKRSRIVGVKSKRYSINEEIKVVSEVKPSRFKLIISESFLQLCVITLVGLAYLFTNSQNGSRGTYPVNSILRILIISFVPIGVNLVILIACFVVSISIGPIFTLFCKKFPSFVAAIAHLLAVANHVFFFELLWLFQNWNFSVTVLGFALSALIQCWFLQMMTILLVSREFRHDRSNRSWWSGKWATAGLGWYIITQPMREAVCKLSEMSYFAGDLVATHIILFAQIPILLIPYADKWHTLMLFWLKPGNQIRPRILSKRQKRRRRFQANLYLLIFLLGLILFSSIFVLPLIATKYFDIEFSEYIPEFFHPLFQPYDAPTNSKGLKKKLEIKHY

## CCCCCOc1ccc(-c2ccc(-c3ccc(C(=O)N[C@H]4C[C@@H](O)[C@@H](O)NC(=O)[C@@H]5[C@@H](O)[C@@H](C)CN5C(=O)[C@H]([C@@H](C)O)NC(=O)[C@H]([C@H](O)[C@@H](O)c5ccc(O)cc5)NC(=O)[C@@H]5C[C@@H](O)CN5C(=O)[C@H]([C@@H](C)O)NC4=O)cc3)cc2)cc1 [ANIDULAFUNGIN] ({pTerphenylCO(4''-OnC5H11)}-[Orn(4R-OH,5R-OH)]T[Hyp][hTyr(3S-OH,4S-OH)]T[Pro(3S-OH,4S-Me)]; lactam 1-C)
Glucan synthase [1]
  IC50: 25.8 nM
[2]
  IC50: 0.29 ng/mL (≈ 0.254 nM)
Glucan synthase [3]
  IC50: 16.2 nM
Glucan synthase [4]
  IC50: 0.88 nM
[5]
  IC50: 1.9 ng/mL
Glucan synthase [6]
  IC50: 4.14 nM
Glucan synthase [7]
  IC50: 13.4 nM
[8]
  IC50: 13.3 ng/mL (≈ 11.7 nM)
[9]
  IC50: 11.9 ng/mL
Glucan synthase [10]
  IC50: 4.14 nM
Candida albicans [11]
  Ratio: 16
[12]
  IC50: 77.4 ng/mL
[13]
  IC50: 6.9 ng/mL
Glucan synthase [14]
  IC50: 16.4 nM
Candida tropicalis
  Ratio: 128
Aspergillus flavus
  Ratio: 32
Aspergillus fumigatus
  Ratio: 32
Glucan synthase [15]
  IC50: 15 nM
[16]
  IC50: 0.75 ng/mL (≈ 0.658 nM)
Glucan synthase [17]
  IC50: 16.3 nM
Pichia kudriavzevii
  Ratio: 32
[18]
  IC50: 21.4 ng/mL
[19]
  IC50: 5.5 ng/mL
[20]
  IC50: 28.1 ng/mL
Aspergillus niger
  Ratio: 32
Candida albicans [21]
  ED90: 1.17 mg/kg
  ED99: 1.36 mg/kg
[22]
  IC50: 3.1 ng/mL
Glucan synthase [23]
  IC50: 0.877 nM
Nakaseomyces glabratus
  Ratio: 64
Candida parapsilosis
  Ratio: 8
Glucan synthase [24]
  IC50: 21 nM
Glucan synthase [25]
  IC50: 78.1 nM
Glucan synthase [26]
  IC50: 21.7 nM
Aspergillus terreus
  Ratio: 16
Glucan synthase [27]
  IC50: 62.7 nM
Glucan synthase [28]
  IC50: 65.5 nM

## CC[C@H](C)C[C@H](C)CCCCCCCCC(=O)N[C@H]1C[C@@H](O)[C@@H](NCCN)NC(=O)[C@@H]2[C@@H](O)CCN2C(=O)[C@H]([C@H](O)CCN)NC(=O)[C@H]([C@H](O)[C@@H](O)c2ccc(O)cc2)NC(=O)[C@@H]2C[C@@H](O)CN2C(=O)[C@H]([C@@H](C)O)NC1=O [CASPOFUNGIN]
Glucan synthase [1]
  IC50: 5.69 nM
[2]
  IC50: 1.1 ng/mL (≈ 1.01 nM)
[29]
  IC50: 9.4 ng/mL
Glucan synthase [3]
  IC50: 0.823 nM
Glucan synthase [4]
  IC50: 0.302 nM
[5]
  IC50: 2.7 ng/mL
Glucan synthase [6]
  IC50: 1.21 nM
Glucan synthase [7]
  IC50: 24.7 nM
Glucan synthase [30]
  IC50: 7.96 nM
[8]
  IC50: 2 ng/mL (≈ 1.83 nM)
[9]
  IC50: 10.3 ng/mL
Glucan synthase [10]
  IC50: 1.19 nM
Candida albicans [11]
  Ratio: 2
[12]
  IC50: 5.9 ng/mL
[13]
  IC50: 3.2 ng/mL
Glucan synthase [14]
  IC50: 1.9 nM
Candida tropicalis
  Ratio: 4
Aspergillus flavus
  Ratio: 8
Aspergillus fumigatus
  Ratio: 11
Glucan synthase [15]
  IC50: 13.4 nM
[16]
  IC50: 1.6 ng/mL (≈ 1.46 nM)
Glucan synthase [17]
  IC50: 1.92 nM
Pichia kudriavzevii
  Ratio: 8
[18]
  IC50: 2.8 ng/mL
[19]
  IC50: 1 ng/mL
[20]
  IC50: 4.8 ng/mL
Aspergillus niger
  Ratio: 8
Candida albicans [21]
  ED90: 1.05 mg/kg
  ED99: 1.1 mg/kg
[22]
  IC50: 3.6 ng/mL
Glucan synthase [23]
  IC50: 0.274 nM
Nakaseomyces glabratus
  Ratio: 4
Candida parapsilosis
  Ratio: 4
Glucan synthase [24]
  IC50: 2.56 nM
Glucan synthase [25]
  IC50: 73.6 nM
Glucan synthase [26]
  IC50: 5.76 nM
Aspergillus terreus
  Ratio: 4
Glucan synthase [27]
  IC50: 4.85 nM
Glucan synthase [28]
  IC50: 33.8 nM

## CCCCCOc1ccc(-c2cc(-c3ccc(C(=O)N[C@H]4C[C@@H](O)[C@@H](O)NC(=O)[C@@H]5[C@@H](O)[C@@H](C)CN5C(=O)[C@H]([C@H](O)CC(N)=O)NC(=O)[C@H]([C@H](O)[C@@H](O)c5ccc(O)c(OS(=O)(=O)O)c5)NC(=O)[C@@H]5C[C@@H](O)CN5C(=O)[C@H]([C@@H](C)O)NC4=O)cc3)no2)cc1 [MICAFUNGIN] (X1-[Orn(4R-OH,5R-OH)]T[Hyp][hTyr(3S-OH,4S-OH,3'-OSO3H)][Gln(3R-OH)][Pro(3S-OH,4S-Me)]; lactam 1-C)
[2]
  IC50: 2.2 ng/mL (≈ 1.73 nM)
[29]
  IC50: 9.8 ng/mL
Glucan synthase [3]
  IC50: 8.5 nM
[5]
  IC50: 6.2 ng/mL
Glucan synthase [7]
  IC50: 25.7 nM
Glucan synthase [30]
  IC50: 44.9 nM
[8]
  IC50: 2 ng/mL (≈ 1.57 nM)
[9]
  IC50: 23.2 ng/mL
Glucan synthase [10]
  IC50: 22.4 nM
Candida albicans [11]
  Ratio: 64
[12]
  IC50: 7.5 ng/mL
[13]
  IC50: 3.3 ng/mL
Candida tropicalis
  Ratio: 128
Aspergillus flavus
  Ratio: 33
Aspergillus fumigatus
  Ratio: 64
Glucan synthase [15]
  IC50: 21.2 nM
[16]
  IC50: 3.7 ng/mL (≈ 2.91 nM)
Glucan synthase [17]
  IC50: 39.4 nM
Pichia kudriavzevii
  Ratio: 133
[18]
  IC50: 4.7 ng/mL
[19]
  IC50: 3.2 ng/mL
[20]
  IC50: 7.6 ng/mL
Aspergillus niger
  Ratio: 133
Candida albicans [21]
  ED90: 1.97 mg/kg
  ED99: 3.71 mg/kg
[22]
  IC50: 10.3 ng/mL
Glucan synthase [23]
  IC50: 14.2 nM
Nakaseomyces glabratus
  Ratio: 64
Candida parapsilosis
  Ratio: 8
Glucan synthase [24]
  IC50: 18.7 nM
Glucan synthase [25]
  IC50: 70.6 nM
Glucan synthase [26]
  IC50: 71 nM
Aspergillus terreus
  Ratio: 32
Glucan synthase [27]
  IC50: 24.7 nM
Glucan synthase [28]
  IC50: 39.8 nM
